Reference: US11518764B2, “Substituted heteroaryls as inhibitors of the BCL6 BTB domain protein-protein interaction” (Ontario Institute for Cancer Research (OICR), priority 2018, dated 2022)
Like-named read-outs stand apart in the source and are kept apart here.

Tests used:
[1] = system: Karpas422 cells; test: Tumor cell growth inhibition assay; type: cell-based
Outline: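 Karpas422 cells (2,000/well) in Alpha-MEM with 10% FBS dosed across 10 concentrations (top 5 uM) and grown six days at 37° C., 5% CO2. Viability read as ATPlite luminescence.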

[2] = molecular target: BCL6 BTB domain (Homo sapiens (Human), UniProt P41182); test: Surface plasmon resonance (SPR) assay; type: binding; conditions: BCL6 BTB domain captured on SA chip, single cycle kinetics
[3] = system: BCL6 reporter construct (3xBCL6-TK-Luc) in SuDHL4 cells; test: Cell-based luciferase assay; conditions: Homo sapiens, SU-DHL-4, 48 h, read-out: Luciferase-Assay EC50, uM), SuDHL4-3xBCL6-TK-Luc cells, two days, high dose 10 uM
Outline: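 SuDHL4 cells stably carrying a 3×BCL6-site TK-promoter firefly luciferase reporter, seeded at 15,000 cells/well, were dosed over a 10-point range (top 10 uM) and grown two days at 37 °C, 5% CO2. Luminescence then read after adding neolite reagent at room temperature.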

[4] = Homo sapiens, KARPAS-422, 144 h, read-out: Tumor Growth Inhibition in Karpas-422 (IC50, uM), Karpas422 cells, six days, ATPlite

Row | Structure (SMILES) | IC50 [1, 4] [µM] | Kd [2] [nM] | EC50 [3] [µM] | IC50 ([1]; read-out: Tumor Growth Inhibition in Karpas-422 (IC50), Karpas422 cells, six days, ATPlite) [µM]
1 | COCCN1CCN(c2cc(NC(=O)Cn3cc(-c4cc(C(N)=O)c(O)c(F)c4F)c4c(=O)n(C)cnc43)c(Cl)cn2)[C@@H](C)C1 [Compound I-414] | 0.455 | 17.9 | 0.374 | –
2 | Cn1cnc2c(c(-c3cc(C(N)=O)c(O)c(F)c3F)cn2CC(=O)Nc2cc(N3CC4CCOC4C3)ncc2Cl)c1=O (stereo not drawn) [Compound I-224] | 0.651 | 22.4 | 2.02 | –
3 | CO[C@@H]1CN(c2cc(NC(=O)Cn3cc(-c4cc(C(N)=O)c(O)c(F)c4F)c4c(=O)n(C)cnc43)c(Cl)cn2)C[C@@H]1F [Compound I-366] | 0.978 | 35.2 | 0.899 | –
4 | C[C@@H]1CN(c2cc(NC(=O)Cn3cc(-c4cc(C(N)=O)c(O)c(Cl)c4F)c4c(=O)n(C)cnc43)c(Cl)cn2)C[C@H](C)O1 [Compound I-170] | – | 369 | 2.14 | 10
5 | CO[C@H]1CC(c2cc(NC(=O)Cn3cc(-c4cc(Cl)c(O)c(C(N)=O)c4)c4c(=O)n(C)cnc43)c(Cl)c(F)n2)C[C@H]1F (stereo partly drawn) [Compound I-439] | 0.28 | 32.9 | 0.267 | –
6 | CN1CCOC2(CCN(c3cc(NC(=O)Cn4cc(-c5cc(F)c(O)c(C(N)=O)c5)c5c(=O)n(C)cnc54)c(Cl)cn3)C2)C1 (stereo not drawn) [Compound I-177] | 0.331 | 5.88 | 0.629 | –
7 | Cn1cnc2c(c(-c3cc(F)c(O)c(C(N)=O)c3)cn2CC(=O)Nc2cc(N3C[C@H]4CCO[C@H]4C3)ncc2Cl)c1=O [Compound I-158] | 0.249 | 1.76 | 1.01 | –
8 | CC(C1CC1)N1CCN(c2cc(NC(=O)Cn3cc(-c4cc(F)c(O)c(C(N)=O)c4)c4c(=O)n(C)cnc43)c(Cl)cn2)[C@@H](C)C1 (stereo partly drawn) [Compound I-391] | 0.0726 | 7.26 | 0.0672 | –
9 | CN(C)c1cc(NC(=O)Cn2cc(-c3cc(Cl)c(O)c(C(N)=O)c3)c3c(=O)n(C)cnc32)c(Cl)c(F)n1 [Compound I-421] | 0.154 | 14.7 | 0.154 | –
10 | Cc1nc2c(c(-c3cc(Cl)c(O)c(C(N)=O)c3)cn2CC(=O)Nc2cc(N3CCN(C)C[C@@H]3C)ncc2Cl)c(=O)[nH]1 [Compound I-128] | 0.074 | 12 | 0.173 | –
11 | CN(C)c1cc(NC(=O)Cn2cc(-c3cc(C(N)=O)c(O)c(F)c3F)c3c(=O)n(C)cnc32)c(Cl)cn1 [Compound I-297] | 0.846 | 57.9 | 0.395 | –
12 | C[C@H]1CN(CC(O)CCO)CCN1c1cc(NC(=O)Cn2cc(-c3cc(C(N)=O)c(O)c(F)c3F)c3c(=O)n(C)cnc32)c(Cl)c(F)n1 (stereo partly drawn) [Compound I-459, 5-(7-(2-((3-chloro-6-((2S)-4-(2,4-dihydroxybutyl)-2-methylpiperazin-1-yl)-2-fluoropyridin-4-yl)amino)-2-oxoethyl)-3-methyl-4-oxo-4,7-dihydro-3H-pyrrolo[2,3-d]pyrimidin-5-yl)-3,4-difluoro-2-hydroxybenzamide] | 1.06 | 6.55 | 0.945 | –
13 | Cn1cnc2c(c(-c3cc(Cl)c(O)c(C(N)=O)c3)cn2CC(=O)Nc2cc(N3C[C@H]4CC[C@@H](C3)N4CC(F)(F)F)ncc2Cl)c1=O [Compound I-474] | 0.237 | 35.8 | 0.216 | –
14 | COc1ccc(Cl)c(NC(=O)Cn2cc(-c3cc(Cl)c(O)c(C(N)=O)c3)c3c(=O)n(C)cnc32)c1 [Compound I-398] | 1.3 | 82.7 | 2.6 | –
15 | CCN1CCN(c2cc(NC(=O)Cn3cc(-c4cc(Cl)c(O)c(C(N)=O)c4)c4c(=O)n(C)c(C)nc43)c(Cl)cn2)[C@@H](C)C1 [Compound I-431] | 0.175 | 30.7 | 0.193 | –
16 | Cn1cnc2c(c(-c3cc(C(N)=O)c(O)c(F)c3F)cn2CC(=O)Nc2cc(N3CCCC3)ncc2Cl)c1=O [Compound I-298] | 0.883 | 32.4 | 0.399 | –
